The values below come from patent publication US20110182943A1, “METHODS OF IMMUNE OR HEMATOLOGICAL ENHANCEMENT, INHIBITING TUMOUR FORMATION OR GROWTH, AND TREATING OR PREVENTING CANCER, CANCER SYMPTOMS, OR THE SYMPTOMS OF CANCER TREATMENTS” (FONTERRA CO-OPERATIVE GROUP LIMITED, priority 2007, published 2011).

One data set concerns EL-4 tumour cells. In words: EL-4 lymphoma tumour growth in mice fed experimental diets. In kind it is in vivo, C57BL/6 mice. An excerpt:
Mice were challenged subcutaneously with 2×10^5 EL-4 tumour cells two weeks after being placed on the diets. Tumour size as measured by two perpendicular diameters (in centimetres) was monitored until day 91, or until tumours reached 1 cm in diameter. Each point represents the mean tumour size with 95% confidence intervals for either 6 mice, or the number of mice indicated.
Groups of six mice were fed a control AIN-93G diet, diets containing either 28 g Lf+ or 120 g of milk fat (AMF) per 2.4 Kg of diet, or a diet containing a combination of both Lf and milk fat. Day 0 refers to the day the mice were placed on their diets. After 2 weeks on the diets, 2×10^5 EL-4 cells were injected into the flanks of mice. Tumour size as measured by two perpendicular diameters (in centimetres) was monitored until day 56. Each point represents the mean tumour size with 95% confidence intervals for either 6 mice, or the number of mice indicated.
Mice were challenged subcutaneously with EL-4 tumour cells two weeks after being placed on the diets. Tumour size was again measured by two perpendicular diameters (in centimetres).

A further data set has as its system 4T1 tumour cells. In words: 4T1 breast cancer primary tumour growth. Type of data set: in vivo, Balb/c mice.
The conditions of data set [1]: day 4; 300 mg/Kg i.p.; irrespective of the diet fed. On the procedure: Cyclophosphamide, diluted in PBS, was administered i.p. at 300 mg/Kg.
(§1) Groups of six C57BL/6 mice were fed an AIN93G diet or the same diet substituted with either 5%, 25% or 70% milk fat, and after 4 weeks of feeding were injected intraperitoneally with cyclophosphamide (300 mg/Kg of body weight) at day 0. The mice were killed 4, 8, and 12 days later, and tissues analyzed for the side-effects of drug treatment, as described below.

For data set [2] the following is noted: single injection 300 mg/Kg i.p.; control diet. On the procedure: as §1
For data set [3] the following is noted: paclitaxel 30 mg/kg i.p.
Method: The jejuni from mice were fixed in 4% paraformaldehyde, embedded in paraffin, sectioned at 4 μm, and sections stained with hematoxylin-eosin. In each specimen, 20 well preserved villi were randomly selected and their lengths were measured by microscopy using an objective micrometer.
To determine whether milk fat protected the gut against paclitaxel-induced damage, groups of 6 Balb/c mice were fed the base AIN-93 diet, or the same diet substituted with 5% milk fat, representing ˜71% of the fat component of the diet. Two weeks later each mouse received an intraperitoneal injection of paclitaxel (30 mg/kg body weight). One week later they were killed and the jejunum was removed. Paraffin-embedded sections of the jejunum of mice treated with control diet, milk fat diet, control diet plus paclitaxel, and milk fat diet plus paclitaxel were stained with hematoxylin and eosin.
Data set [4] can be described thus: Paclitaxel-induced apoptosis in jejunal crypts (TUNEL). In kind it is in vivo, Balb/c mice. To be noted: paclitaxel 30 mg/kg i.p. The protocol: Tumours were excised and immediately frozen in dry ice, and stored at −70° C. for later in situ detection of apoptotic cells in tumours. Frozen serial sections of 6-μm thickness were fixed with paraformaldehyde solution (4% in PBS, pH 7.4), and permeabilized with a solution containing 0.1% Triton X-100 and 0.1% sodium citrate. They were incubated with 20 μl TUNEL reagent (In Situ apoptosis detection kit from Boehringer Mannheim, Germany) for 60 min at 37° C., and examined by fluorescence microscopy. Adjacent sections were counter-stained with haematoxylin to count the total number of cells, or the number of apoptotic cells in ten randomly selected fields (magnification of ×40). The apototic index (AI) was calculated as the number of apoptotic cells×100/total number of nucleated cells. For detection of apoptotic cells in vitro, the numbers of apoptotic and necrotic tumour cells were measured by staining with annexin-V-fluos, TUNEL, and trypan blue. For measurement of gut apoptosis, jejunal sections were stained by the TUNEL method using a DeadEnd™ Fluorometric TUNEL System (Promega, Madison, Wis., USA). Apoptotic cells in 10 randomly selected cypts were counted, and the data expressed as apoptotic bodies per crypt.

For data set [5], the system named is 4T1 breast cancer tumours. In words: 4T1 liver metastases. In kind it is in vivo, Balb/c mice. To be noted: day 35. An excerpt: Suppression of liver metastases: Similarly, the livers of the above mice were inspected for tumours and micrometastases. The livers were removed, section, and stained with hematoxylin/eosin, and the numbers of metastatic nodules inside the livers were counted.

The subject of data set [6] is 4T1 breast cancer tumours. Put plainly: 4T1 lung surface metastases. In kind it is in vivo, Balb/c mice. To be noted: day 35. An excerpt: Suppression of lung metastases: The 4T1 breast cancer cell line is highly metastatic and disseminates to the lung and liver. The lungs of the mice in Example 8 (day 35) were inspected for tumours and micrometastases. The mean numbers of tumours on the lung surface of untreated mice fed the control diet, paclitaxel-treated mice fed the control diet, untreated mice fed milk fat, and paclitaxel-treated mice fed milk fat were 32, 18, 22, and 10, respectively (FIG. 6).

The nature of data set [7]: Blood cell counts in 4T1 tumour-bearing mice. In kind it is in vivo, Balb/c mice.
Data set [8] can be described thus: Body, tumour, organ and tissue weights (cachexia) in 4T1 tumour-bearing mice.
Method: Tumours were established by s.c. injection of 2×10^5 EL-4 or 2×10^4 4T1 cells into the left flank of mice, and tumour growth determined by measuring two perpendicular diameters. […] All experiments included 5 or 6 mice per treatment group, unless otherwise indicated. Paclitaxel (30 mg dissolved in 5 ml of Cremophor® EL and dehydrated alcohol) was diluted in 0.9% NaCl and administered i.p. at 30 mg/Kg. In the case of the 4T1 metastatic model of breast cancer, after the mice were euthanased at the end of experiments, the organs including lung, liver and spleen were removed and weighed.
The mice were weighed at the start and end of the experiment. After the mice were euthanased, the tumours were excised and weighed. To determine the extent of adipose tissue and muscle wasting, epididymal adipose tissue and the left gastrocnemius muscle were dissected and weighed. The carcass weight was calculated as the difference in weight between the whole body and the tumour.
In the next data set the test system is 4T1 primary tumours. Put plainly: 4T1 tumour angiogenesis (anti-CD31 staining). Type of data set: in vivo, Balb/c mice. To be noted: day 35. On the procedure:
To determine tumour vascularity, 10-μm frozen tumour sections were fixed with acetone, rinsed with PBS, blocked with 2% BSA for 2 hr, and incubated overnight with the anti-CD31 antibody MEC13.3, or an anti-CD105 mAb. They were subsequently incubated for 30 min with secondary antibodies using the VECTASTAIN Universal Quick kit (Vector Laboratories, Burlingame, Calif., USA); and developed with Sigma FAST DAB (3,3′-diaminobenzidine tetrahydrochloride) and CoCl2 enhancer tablets (Sigma), and counterstained with hematoxylin. Stained blood vessels were counted in five or six blindly chosen random fields (0.155 mm^2) at ×40 magnification, and the mean of the highest three counts was calculated. […]
The above 4T1 primary tumours (Example 8; day 35) of untreated mice fed the control diet, paclitaxel-treated mice fed the control diet, untreated mice fed milk fat, and paclitaxel-treated mice fed milk fat were excised, sectioned, and stained with an anti-CD31 antibody to identify vascular endothelial cells so as to measure tumour angiogenesis. Blood vessels stained with the anti-CD31 mAb were counted in blindly chosen random fields to record mean vessel density (8A), or the median distance to the nearest CD31 mAb-labeled blood vessel from an array point (8B).

For data set [9], the system named is jejunal γ-glutamyl transpeptidase (γ-GGT). To be noted: paclitaxel 30 mg/kg i.p.
Method: The activity of jejunal γ-glutamyl transpeptidase (γ-GGT) was recorded as a separate measure of gut damage, as described previously Ziotnik et al., 2005). A segment of the jejunum (approximately 5 cm) was excised and flushed with 10 ml of PBS, and cut into two 2 cm^2 segments which were placed into 1.0 ml of 1.0% Triton X-100, 0.15 M NaCl, 100 mM Tris, pH 8.0 (Tris buffer). Twenty microlitres of a solution containing 0.3 ml of 100 mM glycyl-glycine, pH 8.0, 0.08 ml Tris buffer, 0.5 ml of 5 mM γ-glutamyl-p-nitroanilide was added to final volume of 0.9 ml. The gut slices were incubated for 10 min in a shaking water bath at 37° C., and γ-GGT activity read at 405 nm. Results were expressed as units of γ-GGT activity per cm of jejunum, where one unit is defined as the γ-GGT activity that releases 1.0 mol of p-nitroaniline in 1 h.
To determine whether milk fat protected the gut against paclitaxel-induced damage, groups of 6 Balb/c mice were fed the base AIN-93 diet, or the same diet substituted with 5% milk fat, representing ˜71% of the fat component of the diet. Two weeks later each mouse received an intraperitoneal injection of paclitaxel (30 mg/kg body weight). One week later they were killed and the jejunum was removed.
Setting [10] is: paclitaxel chemotherapy, control diet.
[11] abbreviates: tumour-bearing mice, mean ± SEM, n = 6.

Method for 4T1 tumour cells: Tumours were established by s.c. injection of 2×10^5 EL-4 or 2×10^4 4T1 cells into the left flank of mice, and tumour growth determined by measuring two perpendicular diameters. Animals were euthanased when tumours reached more than 1.0 cm in diameter, in accord with Animal Ethics Approval (University of Auckland). All experiments included 5 or 6 mice per treatment group, unless otherwise indicated. Paclitaxel (30 mg dissolved in 5 ml of Cremophor® EL and dehydrated alcohol) was diluted in 0.9% NaCl and administered i.p. at 30 mg/Kg.
Groups of 6 Balb/c mice were fed the base AIN-93 diet, or the same diet substituted with 5% milk fat, representing ˜71% of the fat component of the diet. Mice were challenged subcutaneously with 2×10^4 4T1 tumour cells two weeks after being placed on the diets. The mice were monitored for tumour growth, and tumour size was measured every three days.

Take sphingomyelin: in the data set with EL-4 tumour cells (1.2 g per 2.4 Kg of diet), the “delay of tumour growth in two mice” value is recorded as around 1 week and the “delay of tumour growth in two other mice” value is reported as around 2 weeks. Further, the “effect on tumour growth / tumorigenesis in individual mice” value in the data set on EL-4 tumour cells (groups of five mice, per 2.4 Kg of diet: 28 g Lf+, 120 g Phospholac 600, 1.2 g sphingomyelin) was “no appreciable affect on tumour growth of the remaining mouse”.

With `CCCCCC/C=C/C=C\CCCCCCCC(=O)O` (single isomer, unassigned) [c-9, t-11 CLA isomer], the “synergy with Lf+” value in the data set on 4T1 tumour cells (5 g per 2.4 Kg of diet) is reported as “no synergy”. Further, the “effect on growth of 4T1 tumours” value in the data set on 4T1 tumour cells (5 g per 2.4 Kg of diet, 3% of the fat component) was “only wealdy inhibited”.

For the compound `O=P1(N(CCCl)CCCl)NCCCO1` (centres unmarked) [cyclophosphamide], the “reduction of peripheral WBC count” value in [1] is listed as “more than 90%”. Besides, the “reduction in average length of the villi compared with healthy control mice” value in data set [2] came to 65%.

On to `CC(=O)O[C@H]1C(=O)[C@@]2(C)[C@H]([C@H](OC(=O)c3ccccc3)[C@]3(O)C[C@H](OC(=O)[C@H](O)[C@@H](NC(=O)c4ccccc4)c4ccccc4)C(C)=C1C3(C)C)[C@]1(OC(C)=O)CO[C@@H]1C[C@@H]2O` [paclitaxel], for which the “appearance of jejunal villi in sections” value in data set [3] (hematoxylin and eosin) is “broken and flattened villi”. In [3] (jejunum one week later), the “reduction in average length of the villi compared with control mice” value was determined as 61%. Besides, the “increase in apoptotic body count per crypt compared with untreated mice” value in data set [4] stood at 6 fold. Also, in [5], the “mean number of liver metastases” value is recorded as 59 and the “reduction in numbers of tumours in the liver compared with untreated mice fed the control diet” value was 45%. In data set [6], the “mean number of tumours on the lung surface” value came out at 18 and the “reduction in numbers of tumours on the lung surface compared with untreated mice fed the control diet” value came to 44%. Besides, in data set [7] (setting [10]), the “reduction in RBC count compared to tumour-bearing mice fed the control diet” value is 49% and the “reduction in WBC count compared to tumour-bearing mice fed the control diet” value is on record as 44%. Moreover, in data set [7] (setting [11]), the RBC is reported as 3.21 ± 0.74^3 ×10^6/μl and the WBC is 2.37 ± 0.39^3 ×10^3/μl. Further, in data set [8] (day 35, tumour-bearing mice), the “reduction in lung weight compared to untreated mice fed the control diet” value came out at 30%. For the same compound, the “reduction in spleen weights compared to tumour-bearing mice fed the control diet” value in data set [8] (setting [10]) is reported as 8.5%. For the same compound, in data set [8] (setting [11]), the Body weight was determined as 17.7 ± 1.5 g, the Carcass body weight is recorded as 17.6 ± 1.4 g, the Epididymal adipose tissue is on record as 24.3 ± 6.7 mg and the Gastrocnemius muscle is listed as 101.2 ± 9.3 mg. Moreover, in data set [8] (setting [11]), the Liver amounted to 1210.1 ± 72.4 mg, the Lung was 274.5 ± 30.6^3 mg, the Spleen is 72.35 ± 8.2^3 mg and the Tumor is 103.4 ± 24.1^3 mg. In the data set on 4T1 primary tumours, the “increase in median distance to the nearest CD31+ vessels compared with untreated mice fed the control diet” value was 71% and the “reduction in microvessel density (CD31+ vessels) compared with untreated mice fed the control diet” value is 37%. The “reduction in tumour size compared with untreated mice fed the control diet” value in the data set on 4T1 tumour cells (day 35, 5% milk fat diet, paclitaxel 30 mg/kg i.p. at ~0.5 cm) was found to be 31%. Further, in data set [9], the “reduction in jejunal γ-GGT activity compared to untreated control mice” value turned out to be 56%.
